Reference: ChEMBL document CHEMBL4308841, “Synthesis, in vitro antiproliferative activity, and kinase inhibitory effects of pyrazole-containing diarylureas and diarylamides” (Eur J Med Chem, 2018)

The molecules below were run on MDA-MB-231 (assay: Growth inhibition of human MDA-MB-231 cells incubated for 48 hrs by sulforhodamine B assay). Details: MDA-MB-231, 48 h, read-out: pGI50 (converted).
Assay type: functional, cell-based

| SMILES | GI50 [µM] |
| --- | --- |
| O=C(Nc1cccc(-n2cc(-c3ccncc3)c(-c3cc(O)cc(Cl)c3)n2)c1)Nc1ccc(Cl)c(Cl)c1 | 1 |

Same assay, conditions: MDA-MB-231, 48 h, read-out: pLC50 (the source's name) (converted)

| SMILES | CC50 [µM] |
| --- | --- |
| O=C(Nc1cccc(-n2cc(-c3ccncc3)c(-c3cc(O)cc(Cl)c3)n2)c1)Nc1ccc(Cl)c(Cl)c1 | > 100 |

Same assay, conditions: MDA-MB-231, 48 h, read-out: pTGI (converted)

| SMILES | TGI [µM] |
| --- | --- |
| O=C(Nc1cccc(-n2cc(-c3ccncc3)c(-c3cc(O)cc(Cl)c3)n2)c1)Nc1ccc(Cl)c(Cl)c1 | 7.76 |

What follows are molecules tested on NCI-H322M (assay: Growth inhibition of human NCI-H322M cells assessed as cell growth at 0.01 uM incubated for 48 hrs by sulforhodamine B assay relative to control). Details: read-out: Activity.
Assay type: functional

| SMILES | growth at 0.01 µM [%] |
| --- | --- |
| O=C(Nc1cccc(-n2cc(-c3ccncc3)c(-c3cc(O)cc(Cl)c3)n2)c1)Nc1ccc(Cl)c(Cl)c1 | 52 |

The molecules below were run on NCI-H226 (assay: Growth inhibition of human NCI-H226 cells assessed as cell growth at 100 uM incubated for 48 hrs by sulforhodamine B assay relative to control). Details: NCI-H226, 48 h, read-out: Activity.
Assay type: functional

| SMILES | growth at 100 µM [%] |
| --- | --- |
| O=C(Nc1cccc(-n2cc(-c3ccncc3)c(-c3cc(O)cc(Cl)c3)n2)c1)Nc1ccc(Cl)c(Cl)c1 | -41 |

These molecules were tested on KM12 (assay: Growth inhibition of human KM12 cells assessed as cell growth at 0.1 uM incubated for 48 hrs by sulforhodamine B assay relative to control). Details: KM12, 48 h, read-out: Activity.
Assay type: functional

| SMILES | growth at 0.1 µM [%] |
| --- | --- |
| O=C(Nc1cccc(-n2cc(-c3ccncc3)c(-c3cc(O)cc(Cl)c3)n2)c1)Nc1ccc(Cl)c(Cl)c1 | 100 |

Each molecule was assayed on MDA-MB-231 (assay: Growth inhibition of human MDA-MB-231 cells assessed as cell growth at 100 uM incubated for 48 hrs by sulforhodamine B assay relative to control). Details: MDA-MB-231, 48 h, read-out: Activity.
Assay type: functional

| SMILES | growth at 100 µM [%] |
| --- | --- |
| O=C(Nc1cccc(-n2cc(-c3ccncc3)c(-c3cc(O)cc(Cl)c3)n2)c1)Nc1ccc(Cl)c(Cl)c1 | -24 |

The molecules below were run on SNB-19 (assay: Growth inhibition of human SNB19 cells incubated for 48 hrs by sulforhodamine B assay). Details: SNB-19, 48 h, read-out: GI50.
Assay type: functional, cell-based

| SMILES | GI50 [µM] |
| --- | --- |
| O=C(Nc1cccc(-n2cc(-c3ccncc3)c(-c3cc(O)cc(Cl)c3)n2)c1)Nc1ccc(Cl)c(Cl)c1 | 3.38 |

Same assay, conditions: SNB-19, 48 h, read-out: LC50 (the source's name)

| SMILES | CC50 [µM] |
| --- | --- |
| O=C(Nc1cccc(-n2cc(-c3ccncc3)c(-c3cc(O)cc(Cl)c3)n2)c1)Nc1ccc(Cl)c(Cl)c1 | > 100 |

Same assay, conditions: SNB-19, 48 h, read-out: TGI

| SMILES | TGI [µM] |
| --- | --- |
| O=C(Nc1cccc(-n2cc(-c3ccncc3)c(-c3cc(O)cc(Cl)c3)n2)c1)Nc1ccc(Cl)c(Cl)c1 | 19 |

Same assay, conditions: SNB-19, 48 h, read-out: pGI50 (converted)

| SMILES | GI50 [µM] |
| --- | --- |
| O=C(Nc1cccc(-n2cc(-c3ccncc3)c(-c3cc(O)cc(Cl)c3)n2)c1)Nc1ccc(Cl)c(Cl)c1 | 3.16 |

Same assay, conditions: SNB-19, 48 h, read-out: pLC50 (the source's name) (converted)

| SMILES | CC50 [µM] |
| --- | --- |
| O=C(Nc1cccc(-n2cc(-c3ccncc3)c(-c3cc(O)cc(Cl)c3)n2)c1)Nc1ccc(Cl)c(Cl)c1 | > 100 |

Same assay, conditions: SNB-19, 48 h, read-out: pTGI (converted)

| SMILES | TGI [µM] |
| --- | --- |
| O=C(Nc1cccc(-n2cc(-c3ccncc3)c(-c3cc(O)cc(Cl)c3)n2)c1)Nc1ccc(Cl)c(Cl)c1 | 19.1 |

The molecules below were run on KM12 (assay: Growth inhibition of human KM12 cells assessed as cell growth at 0.01 uM incubated for 48 hrs by sulforhodamine B assay relative to control). Details: KM12, 48 h, read-out: Activity.
Assay type: functional

| SMILES | growth at 0.01 µM [%] |
| --- | --- |
| O=C(Nc1cccc(-n2cc(-c3ccncc3)c(-c3cc(O)cc(Cl)c3)n2)c1)Nc1ccc(Cl)c(Cl)c1 | 102 |

The molecules below were run on M14 (assay: Growth inhibition of human M14 cells assessed as cell growth at 0.1 uM incubated for 48 hrs by sulforhodamine B assay relative to control). Details: M14, 48 h, read-out: Activity.
Assay type: functional

| SMILES | growth at 0.1 µM [%] |
| --- | --- |
| O=C(Nc1cccc(-n2cc(-c3ccncc3)c(-c3cc(O)cc(Cl)c3)n2)c1)Nc1ccc(Cl)c(Cl)c1 | 93 |

What follows are molecules tested on CCRF-CEM (assay: Growth inhibition of human CCRF-CEM cells assessed as cell growth at 1 uM incubated for 48 hrs by sulforhodamine B assay relative to control). Details: read-out: Activity.
Assay type: functional

| SMILES | growth at 1 µM [%] |
| --- | --- |
| O=C(Nc1cccc(-n2cc(-c3ccncc3)c(-c3cc(O)cc(Cl)c3)n2)c1)Nc1ccc(Cl)c(Cl)c1 | 76 |

These molecules were tested on HCC 2998 (assay: Growth inhibition of human HCC2998 cells incubated for 48 hrs by sulforhodamine B assay). Details: HCC 2998, 48 h, read-out: GI50.
Assay type: functional, cell-based

| SMILES | GI50 [µM] |
| --- | --- |
| O=C(Nc1cccc(-n2cc(-c3ccncc3)c(-c3cc(O)cc(Cl)c3)n2)c1)Nc1ccc(Cl)c(Cl)c1 | 2.93 |

Same assay, conditions: HCC 2998, 48 h, read-out: LC50 (the source's name)

| SMILES | CC50 [µM] |
| --- | --- |
| O=C(Nc1cccc(-n2cc(-c3ccncc3)c(-c3cc(O)cc(Cl)c3)n2)c1)Nc1ccc(Cl)c(Cl)c1 | 7.51 |

Same assay, conditions: HCC 2998, 48 h, read-out: TGI

| SMILES | TGI [µM] |
| --- | --- |
| O=C(Nc1cccc(-n2cc(-c3ccncc3)c(-c3cc(O)cc(Cl)c3)n2)c1)Nc1ccc(Cl)c(Cl)c1 | 89.9 |

Same assay, conditions: HCC 2998, 48 h, read-out: pGI50 (converted)

| SMILES | GI50 [µM] |
| --- | --- |
| O=C(Nc1cccc(-n2cc(-c3ccncc3)c(-c3cc(O)cc(Cl)c3)n2)c1)Nc1ccc(Cl)c(Cl)c1 | 2.95 |

Same assay, conditions: HCC 2998, 48 h, read-out: pLC50 (the source's name) (converted)

| SMILES | CC50 [µM] |
| --- | --- |
| O=C(Nc1cccc(-n2cc(-c3ccncc3)c(-c3cc(O)cc(Cl)c3)n2)c1)Nc1ccc(Cl)c(Cl)c1 | 77.6 |

Same assay, conditions: HCC 2998, 48 h, read-out: pTGI (converted)

| SMILES | TGI [µM] |
| --- | --- |
| O=C(Nc1cccc(-n2cc(-c3ccncc3)c(-c3cc(O)cc(Cl)c3)n2)c1)Nc1ccc(Cl)c(Cl)c1 | 8.91 |

Each molecule was assayed on NCI-H522 (assay: Growth inhibition of human NCI-H522 cells assessed as cell growth at 0.1 uM incubated for 48 hrs by sulforhodamine B assay relative to control). Details: NCI-H522, 48 h, read-out: Activity.
Assay type: functional

| SMILES | growth at 0.1 µM [%] |
| --- | --- |
| O=C(Nc1cccc(-n2cc(-c3ccncc3)c(-c3cc(O)cc(Cl)c3)n2)c1)Nc1ccc(Cl)c(Cl)c1 | 92 |

These molecules were tested on NCI/ADR-RES (assay: Growth inhibition of human NCI/ADR-RES cells assessed as cell growth at 1 uM incubated for 48 hrs by sulforhodamine B assay relative to control). Details: read-out: Activity.
Assay type: functional

| SMILES | growth at 1 µM [%] |
| --- | --- |
| O=C(Nc1cccc(-n2cc(-c3ccncc3)c(-c3cc(O)cc(Cl)c3)n2)c1)Nc1ccc(Cl)c(Cl)c1 | 90 |

What follows are molecules tested on UACC-257 (assay: Growth inhibition of human UACC257 cells incubated for 48 hrs by sulforhodamine B assay). Details: UACC-257, 48 h, read-out: GI50.
Assay type: functional, cell-based

| SMILES | GI50 [µM] |
| --- | --- |
| O=C(Nc1cccc(-n2cc(-c3ccncc3)c(-c3cc(O)cc(Cl)c3)n2)c1)Nc1ccc(Cl)c(Cl)c1 | 1.96 |

Same assay, conditions: UACC-257, 48 h, read-out: LC50 (the source's name)

| SMILES | CC50 [µM] |
| --- | --- |
| O=C(Nc1cccc(-n2cc(-c3ccncc3)c(-c3cc(O)cc(Cl)c3)n2)c1)Nc1ccc(Cl)c(Cl)c1 | 9.5 |

Same assay, conditions: UACC-257, 48 h, read-out: TGI

| SMILES | TGI [µM] |
| --- | --- |
| O=C(Nc1cccc(-n2cc(-c3ccncc3)c(-c3cc(O)cc(Cl)c3)n2)c1)Nc1ccc(Cl)c(Cl)c1 | 43 |

Same assay, conditions: UACC-257, 48 h, read-out: pGI50 (converted)

| SMILES | GI50 [µM] |
| --- | --- |
| O=C(Nc1cccc(-n2cc(-c3ccncc3)c(-c3cc(O)cc(Cl)c3)n2)c1)Nc1ccc(Cl)c(Cl)c1 | 1.95 |

Same assay, conditions: UACC-257, 48 h, read-out: pLC50 (the source's name) (converted)

| SMILES | CC50 [µM] |
| --- | --- |
| O=C(Nc1cccc(-n2cc(-c3ccncc3)c(-c3cc(O)cc(Cl)c3)n2)c1)Nc1ccc(Cl)c(Cl)c1 | 9.55 |

Same assay, conditions: UACC-257, 48 h, read-out: pTGI (converted)

| SMILES | TGI [µM] |
| --- | --- |
| O=C(Nc1cccc(-n2cc(-c3ccncc3)c(-c3cc(O)cc(Cl)c3)n2)c1)Nc1ccc(Cl)c(Cl)c1 | 4.27 |
